Test results published in patent US12485134B2, “Use of nicotinamide riboside, nicotinic acid riboside, reduced nicotinyl riboside compounds, and nicotinyl riboside compound derivatives in formulations” (ChromaDex Inc., priority 2019, dated 2025).

Experiments:
soy isolate proteins = assay: WaterLOGSY NMR binding of NR-Cl; details: native vs denatured, pH 7.0
Description: (§1) WaterLOGSY is a sensitive ligand-observed NMR experiment designed for the screening of protein ligands from a mixture of potential binders. […] The experiment relies on fast dissociation of bound ligands to carry into the free state magnetisation originating from irradiated water that has been transmitted via the protein complex.
(§2) NMR samples for WaterLOGSY were prepared as follows. Ligand-detect WaterLOGSY experiments were carried at 600 MHz with 5-mm cryoprobe and using 5-mm NMR tubes. Each NMR sample for WaterLOGSY contained ˜0.05 mg (˜0.35 mM), using unlabeled ligand NR-Cl (“NR”), in a NMR buffer containing ˜0.5 mL 90% H2O/10% ^2H2O at pH 7.0 with or without the milk and soy protein mix (compared to the WaterLOGSY of NR as a negative control). Protein was added as a powder with a minimal 15 to 50 μM concentration. Typically, the final NMR sample of protein-compound mixtures had >20-fold higher compound concentration of ligand compared to that of the protein. Denatured samples were prepared by simply heating (80° C. for 15-20 mins) the aqueous (5-10% ^2H2O) protein mixture (in absence of NR).

[1] = system: non-hydrolyzed whey protein; assay: NR-Cl binding to non-hydrolyzed whey protein isolate (cutoff filter method); details: Non-Hydrolyzed Whey Protein Isolate 20 mg/mL, 2 mmol/L NR-Cl (33.3:1 wt:wt)
Description: (§3) A. Solutions of hydrolyzed whey protein isolate (>90% protein, 2-7% degree of hydrolysis) were prepared at varying concentrations and filtered through 0.2 μm sterile filters. An aliquot of sterile nicotinamide riboside chloride (“NR-Cl,” a salt of NR, I) in water solution was spiked into the sterile whey solutions, targeting a final NR-Cl concentration of 1 mmol per liter (0.3 mg/mL). The solutions containing the mixture of hydrolyzed whey and NR-Cl were filtered through 10 kDa molecular weight cutoff centrifuge filters to remove the whey proteins (14-80 kDa) and any NR-Cl that was bound to the proteins. Any NR-Cl that was not bound to the whey proteins was recovered in the filtrate and quantitated by HPLC.
(§4) A study measuring the stability of NR-Cl in hydrolyzed and non-hydrolyzed whey protein was conducted with 2 mmol/L NR-Cl (0.6 mg/mL) and 20 mg/mL protein (33.3:1 wt:wt protein:NR-Cl). […] (See Table 5).

[2] = system: milk concentrate proteins; assay: WaterLOGSY NMR binding of NR-Cl; details: pH 7.0
Description: as §1, §2
The NR only WaterLOGSY spectrum (FIG. 23) was the negative control to screen for any potential binding of NR-Cl to milk concentrate and soy isolate proteins as shown herein and discussed below.

[3] = Stability of NR-Cl in whey protein isolate solutions (% nicotinamide degradant, vs control of NR-Cl in water only); type: physicochemical; details: for increase in nicotinamide: after 1 day at refrigerated conditions
Description: as §3
The solutions of hydrolyzed whey protein isolate and NR-Cl were stored at ambient and refrigerated conditions and analyzed at various timepoints for NR-Cl protein binding and stability.
as §4

Transferrin = Transferrin (Bos taurus, UniProt Q29443); assay: NR-Cl binding to individual whey proteins (cutoff filter method); details: 1 mmol/L each of protein and NR-Cl
Chain of Transferrin (Q29443 20-704): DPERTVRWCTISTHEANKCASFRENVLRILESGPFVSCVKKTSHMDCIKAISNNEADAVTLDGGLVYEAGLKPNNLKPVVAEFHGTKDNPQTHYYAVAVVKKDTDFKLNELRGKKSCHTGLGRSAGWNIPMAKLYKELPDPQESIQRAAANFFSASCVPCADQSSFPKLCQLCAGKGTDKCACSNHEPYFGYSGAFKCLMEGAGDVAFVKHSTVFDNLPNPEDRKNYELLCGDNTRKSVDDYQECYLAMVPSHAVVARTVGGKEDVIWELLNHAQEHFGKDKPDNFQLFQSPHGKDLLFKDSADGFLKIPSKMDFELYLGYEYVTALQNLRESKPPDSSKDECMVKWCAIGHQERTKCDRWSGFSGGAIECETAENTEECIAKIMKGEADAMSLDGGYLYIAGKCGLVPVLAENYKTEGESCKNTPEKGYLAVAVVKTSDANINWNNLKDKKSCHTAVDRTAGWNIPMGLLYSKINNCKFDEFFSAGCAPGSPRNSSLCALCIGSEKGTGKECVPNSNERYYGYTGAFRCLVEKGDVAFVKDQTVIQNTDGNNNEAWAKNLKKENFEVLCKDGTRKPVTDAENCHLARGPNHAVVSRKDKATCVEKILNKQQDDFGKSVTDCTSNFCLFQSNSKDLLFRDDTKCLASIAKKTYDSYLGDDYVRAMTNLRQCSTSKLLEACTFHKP
Description: as §3
(§5) The solutions were prepared with 1 mmol/L each of protein and NR-Cl. NR-Cl binding to one or more of these individual proteins could be responsible for the enhanced stability of NR-Cl seen in hydrolyzed whey protein isolate.

Lactoferrin = Lactoferrin (Bos taurus, UniProt P24627); assay: as above; details: 1 mmol/L each of protein and NR-Cl
Chain of Lactoferrin (P24627 20-708): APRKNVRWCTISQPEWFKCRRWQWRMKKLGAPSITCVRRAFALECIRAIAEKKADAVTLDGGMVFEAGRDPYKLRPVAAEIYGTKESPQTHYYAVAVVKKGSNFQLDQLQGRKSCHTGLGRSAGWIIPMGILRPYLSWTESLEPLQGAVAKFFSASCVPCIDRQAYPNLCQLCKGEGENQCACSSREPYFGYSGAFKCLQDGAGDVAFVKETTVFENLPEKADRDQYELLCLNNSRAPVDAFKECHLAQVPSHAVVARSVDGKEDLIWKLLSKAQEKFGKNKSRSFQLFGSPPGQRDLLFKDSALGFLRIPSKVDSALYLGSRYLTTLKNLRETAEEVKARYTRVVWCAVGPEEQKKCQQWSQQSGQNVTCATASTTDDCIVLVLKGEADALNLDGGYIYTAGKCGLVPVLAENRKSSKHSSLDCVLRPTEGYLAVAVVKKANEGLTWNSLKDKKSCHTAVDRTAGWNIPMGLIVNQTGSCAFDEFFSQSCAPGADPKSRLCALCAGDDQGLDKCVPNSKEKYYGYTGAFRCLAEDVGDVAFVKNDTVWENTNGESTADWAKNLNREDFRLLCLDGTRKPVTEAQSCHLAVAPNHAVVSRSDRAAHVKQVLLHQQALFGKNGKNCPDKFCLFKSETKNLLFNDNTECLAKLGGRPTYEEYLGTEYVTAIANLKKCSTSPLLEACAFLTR
Description: as §3, §5

Albumin = Albumin (Bos taurus, UniProt P02769); assay: as above; details: 1 mmol/L each of protein and NR-Cl
Chain of Albumin (P02769 25-607): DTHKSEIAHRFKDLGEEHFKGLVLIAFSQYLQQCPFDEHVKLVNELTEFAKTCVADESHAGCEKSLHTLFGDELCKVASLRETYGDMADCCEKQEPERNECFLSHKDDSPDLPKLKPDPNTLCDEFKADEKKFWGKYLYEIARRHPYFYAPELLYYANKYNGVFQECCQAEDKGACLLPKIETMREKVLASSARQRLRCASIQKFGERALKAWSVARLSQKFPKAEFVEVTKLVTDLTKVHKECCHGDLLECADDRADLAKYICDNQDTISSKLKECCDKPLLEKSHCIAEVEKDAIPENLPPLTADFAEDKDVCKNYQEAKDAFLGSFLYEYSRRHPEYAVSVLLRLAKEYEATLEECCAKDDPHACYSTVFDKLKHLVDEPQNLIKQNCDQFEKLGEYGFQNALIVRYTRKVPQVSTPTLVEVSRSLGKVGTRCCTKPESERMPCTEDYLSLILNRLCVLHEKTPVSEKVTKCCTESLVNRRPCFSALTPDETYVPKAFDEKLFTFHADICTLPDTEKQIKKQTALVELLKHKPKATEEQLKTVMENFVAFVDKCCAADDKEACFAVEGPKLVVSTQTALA
Description: as §3, §5

Alpha-lactalbumin = molecular target: T1, Alpha-lactalbumin (Bos taurus, UniProt P00711); assay: as above; details: 1 mmol/L each of protein and NR-Cl
T1 sequence (P00711 20-142): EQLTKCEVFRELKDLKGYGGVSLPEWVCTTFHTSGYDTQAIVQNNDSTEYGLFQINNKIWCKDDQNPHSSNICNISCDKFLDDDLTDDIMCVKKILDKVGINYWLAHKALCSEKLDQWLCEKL
Description: as §3, §5

Beta-lactoglobulin = molecular target: T2, Beta-lactoglobulin (Bos taurus, UniProt P02754); assay: as above; details: 1 mmol/L each of protein and NR-Cl
T2 sequence (P02754 17-178): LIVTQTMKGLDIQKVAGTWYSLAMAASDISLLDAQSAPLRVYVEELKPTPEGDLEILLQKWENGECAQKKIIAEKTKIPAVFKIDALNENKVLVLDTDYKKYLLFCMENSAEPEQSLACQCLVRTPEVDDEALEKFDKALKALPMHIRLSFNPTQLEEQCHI
Description: as §3, §5

For `NC(=O)c1ccc[n+]([C@@H]2O[C@H](CO)[C@@H](O)[C@H]2O)c1.[Cl-]` [NR-Cl, nicotinamide riboside chloride], the WaterLOGSY binding (soy isolate proteins) was “increase in binding with NR-Cl only after denaturation”, the “% NR-Cl Bound to Protein” value ([1]; 0 days refrigerated) was 49% and the “% NR-Cl Bound to Protein” value ([1]; 1 day refrigerated) was 54%. For the same compound, the WaterLOGSY binding ([2]; denatured milk concentrate (80° C. for 15-20 mins)) was “decreased binding”, the WaterLOGSY binding ([2]; milk concentrate) was “evidence of positive binding” and the “% Nicotinamide” value ([3]; Control (NR-Cl in water only), 0 days ambient) was 0.2%. For the same compound, the “% Nicotinamide” value ([3]; Control (NR-Cl in water only), 0 days refrigerated) was 0.2%, the “% Nicotinamide” value ([3]; Control (NR-Cl in water only), 3 days ambient) was 3.8% and the “% Nicotinamide” value ([3]; Control (NR-Cl in water only), 5 days ambient) was 4.8%. For the same compound, the “% Nicotinamide” value ([3]; Control (NR-Cl in water only), 7 days ambient) was 5.3%, the “% Nicotinamide” value ([3]; Control (NR-Cl in water only), 30 days refrigerated) was 2.3% and the “% Nicotinamide” value ([3]; Hydrolyzed Whey Protein Isolate 20 mg/mL, 2 mmol/L NR-Cl (33.3:1 wt:wt), 0 days refrigerated) was 0.1%. For the same compound, the “% Nicotinamide” value ([3]; Hydrolyzed Whey Protein Isolate 20 mg/mL, 2 mmol/L NR-Cl (33.3:1 wt:wt), 1 day refrigerated) was 0.1%, the “% Nicotinamide” value ([3]; Non-Hydrolyzed Whey Protein Isolate 20 mg/mL, 2 mmol/L NR-Cl (33.3:1 wt:wt), 0 days refrigerated) was 0.3% and the “% Nicotinamide” value ([3]; Non-Hydrolyzed Whey Protein Isolate 20 mg/mL, 2 mmol/L NR-Cl (33.3:1 wt:wt), 1 day refrigerated) was 5.4%. The increase in nicotinamide ([3]; hydrolyzed whey solution) was “did not show any increase”, the “% Nicotinamide” value ([3]; hydrolyzed whey:NR-Cl 18.3:1 (wt:wt), 0 days ambient) was 0.1% and the “% Nicotinamide” value ([3]; hydrolyzed whey:NR-Cl 18.3:1 (wt:wt), 0 days refrigerated) was 0.1%. The “% Nicotinamide” value ([3]; hydrolyzed whey:NR-Cl 18.3:1 (wt:wt), 3 days ambient) was 2.2%, the “% Nicotinamide” value ([3]; hydrolyzed whey:NR-Cl 18.3:1 (wt:wt), 5 days ambient) was 3.3% and the “% Nicotinamide” value ([3]; hydrolyzed whey:NR-Cl 18.3:1 (wt:wt), 7 days ambient) was 3.9%. The “% Nicotinamide” value ([3]; hydrolyzed whey:NR-Cl 18.3:1 (wt:wt), 30 days refrigerated) was 1.5%, the “% Nicotinamide” value ([3]; hydrolyzed whey:NR-Cl 37:1 (wt:wt), 0 days ambient) was 0.2% and the “% Nicotinamide” value ([3]; hydrolyzed whey:NR-Cl 37:1 (wt:wt), 0 days refrigerated) was 0.2%. For the same compound, the “% Nicotinamide” value ([3]; hydrolyzed whey:NR-Cl 37:1 (wt:wt), 3 days ambient) was 2.1%, the “% Nicotinamide” value ([3]; hydrolyzed whey:NR-Cl 37:1 (wt:wt), 5 days ambient) was 3.1% and the “% Nicotinamide” value ([3]; hydrolyzed whey:NR-Cl 37:1 (wt:wt), 7 days ambient) was 3.8%. The “% Nicotinamide” value ([3]; hydrolyzed whey:NR-Cl 37:1 (wt:wt), 30 days refrigerated) was 1.4%, the “% Nicotinamide” value ([3]; hydrolyzed whey:NR-Cl 73:1 (wt:wt), 0 days ambient) was 0.2% and the “% Nicotinamide” value ([3]; hydrolyzed whey:NR-Cl 73:1 (wt:wt), 0 days refrigerated) was 0.2%. For the same compound, the “% Nicotinamide” value ([3]; hydrolyzed whey:NR-Cl 73:1 (wt:wt), 3 days ambient) was 2.4%, the “% Nicotinamide” value ([3]; hydrolyzed whey:NR-Cl 73:1 (wt:wt), 5 days ambient) was 3.2% and the “% Nicotinamide” value ([3]; hydrolyzed whey:NR-Cl 73:1 (wt:wt), 7 days ambient) was 4.2%. For the same compound, the “% Nicotinamide” value ([3]; hydrolyzed whey:NR-Cl 73:1 (wt:wt), 30 days refrigerated) was 1.6%, the “% Nicotinamide” value ([3]; hydrolyzed whey:NR-Cl 147:1 (wt:wt), 0 days ambient) was 0.3% and the “% Nicotinamide” value ([3]; hydrolyzed whey:NR-Cl 147:1 (wt:wt), 3 days ambient) was 2.4%. The “% Nicotinamide” value ([3]; hydrolyzed whey:NR-Cl 147:1 (wt:wt), 5 days ambient) was 3.4%, the “% Nicotinamide” value ([3]; hydrolyzed whey:NR-Cl 147:1 (wt:wt), 7 days ambient) was 4.1% and the “% Nicotinamide” value ([3]; hydrolyzed whey:NR-Cl 293:1 (wt:wt), 0 days ambient) was 0.6%. The “% Nicotinamide” value ([3]; hydrolyzed whey:NR-Cl 293:1 (wt:wt), 3 days ambient) was 2.8%, the “% Nicotinamide” value ([3]; hydrolyzed whey:NR-Cl 293:1 (wt:wt), 7 days ambient) was 4.4% and the increase in nicotinamide ([3]; non-hydrolyzed whey solution) was 5%. For the same compound, the “% NR-Cl Bound to Protein” value (Transferrin) was 15%, the “% NR-Cl Bound to Protein” value (Lactoferrin) was 28% and the “% NR-Cl Bound to Protein” value (Albumin) was 47%. For the same compound, the “% NR-Cl Bound to Protein” value (Alpha-lactalbumin) was 62% and the “% NR-Cl Bound to Protein” value (Beta-lactoglobulin) was 66%.
